{"source": "paper PMC3646166", "about": "“Comparison of Aqueous and 1-Octanol Solubility as well as Liquid–Liquid Distribution of Acyclovir Derivatives and Their Complexes with Hydroxypropyl-β-Cyclodextrin” (Journal of Solution Chemistry, 2013)", "key": {"[1]": {"assay": "Solubility in water or 1-octanol (saturated solutions, UV-Vis)", "assay_type": "physicochemical", "settings": "for solubility: thermodynamic from solid, water", "procedure": "The sample of substance examined (10 mg or 80 mg for 6-Me-TACV) was placed in a glass ampoule and double-distilled, deionized water (Millipore, Elix 5 purifier), or pure anhydrous 1-octanol (Sigma 99 %) was added. To attain thermodynamic equilibrium, the solute and the solvent were mixed continuously for a minimum of 4 days at a speed of 25 rpm. After the experiment was completed, the sample was centrifuged at 40,000 rpm for 40 min at 25 ± 0.1 °C, the supernatant liquid was collected, diluted, and its concentration determined with a UV–Vis (Varian Carry IE) spectrophotometer. The experiments were repeated at least three times for each solubility."}, "[2]": {"assay": "Solubility in buffered cyclodextrin solutions (excess method of Higuchi and Connors)", "assay_type": "physicochemical", "parameters": "Stability constant K s of HP-β-CD complex: unit not given here", "settings": "for Correlation parameter a (Eq. 2, Cs = a + b·CCD) / Correlation parameter b (Eq. 2, Cs = a + b·CCD): buffered HP-β-CD solutions; for solubility / solubility at 7 days: thermodynamic from solid, read-out: Solubility, C 6-Ph-O-Me-TACV", "procedure": "Solubilities of the studied compounds was ensured according to the excess method of Higuchi and Connors. […] An excess amount of compounds 4-9 and 11-12 was added to 1.5 mL of aqueous phosphate buffer (concentration of buffer was equal 0.067 mol·dm^-3) solutions, (pH = 5.5 or 7.0) containing various concentration of HP-β-CD. The cyclodextrin concentration changed in the range of 10^-3 to 2 × 10^-2 mol·dm^-3. The suspensions were shaken in screw-capped plastic vials in a water bath thermostat with the volume of 60 dm^3 (home made apparatus by IChF PAN) at 25 and 37 °C. After 7 days equilibrium was reached and then the suspensions were centrifuged and the absorbance of the studied compounds was measured by UV-Vis spectrophotometry using a Shimadzu UV 2401 PC Spectrometer equipped with a thermostatically controlled cell compartment. During the measurement of absorbance, a buffered-solution of HP-β-CD, of the same concentration as in the studied solution, was always put as the reference. The average values of at least three independent determinations of the absorbance were used for calculation of the concentrations of the particular acyclovir derivatives. […] The main reason for the low solubility of tricyclic acyclovir derivatives with aromatic groups in water is the high hydrophobicity of these substituents. Use of cyclodextrins, which can include aromatic groups into their cavity, may enhance the aqueous solubility of such compounds. For this purpose we used several cyclodextrins and hydroxypropyl-β-cyclodextrin was chosen as being more efficient for complexating the tricyclic acyclovir derivatives. The investigations were performed, for chosen compounds, in various cyclodextrin HP-β-CD, buffered solutions (pH = 5.5 and 7.0) at 25 and 37 °C. […] Values of the correlation parameters a and b for tricyclic acyclovir derivatives complexed by cyclodextrin are presented in Table 3. […] The stability constants of the inclusion complexes between HP-β-CD and acyclovir derivatives have been calculated according to the Higuchi-Connors method using:3 K=b/C0(1-b) where C 0 is the solubility of the sample in solutions without cyclodextrin, obtained by determination of saturated solution concentration of acyclovir derivative solutions. […] These two values can differ, but in our study are very close to each other."}, "[3]": {"assay": "Extraction experiments, 1-octanol-water partition coefficient", "assay_type": "physicochemical", "settings": "25 °C, read-out: Partition coefficient 1-octanol–water, P oc/w (converted)", "procedure": "The equipment described above was also used for the determination of the 1-octanol-water partition coefficients. […] The partition coefficient was evaluated as:1 Poc/w=Coc/Cw where C oc and C w are the molar concentrations of the solute in the 1-octanol and water phases, respectively. The correctness of the P oc/w value of each compound was verified by checking the mass balance of the starting amount of the substance and the total amount of the substance partitioned between the two phases."}, "[4]": {"assay": "Solubility in buffered cyclodextrin solutions (excess method of Higuchi and Connors)", "assay_type": "physicochemical", "settings": "phosphate buffer saturated with 1-octanol, aqueous buffer, thermodynamic from solid, pH = 7.0, 37 °C, read-out: Solubility, C 6-Ph-O-Me-TACV"}, "HSV-1 and HSV-2 viruses": {"system": "HSV-1 and HSV-2 viruses", "parameters": "method as in PMID 7932543", "settings": "towards HSV-1 and HSV-2 viruses ref 8; cited from earlier work"}}, "note": "Where two headings read alike, the source gives them in different places."}
{"smiles": "COc1ccc(-c2cn3c(=O)c4ncn(COCCO)c4nc3[nH]2)cc1", "note": "[Compound 11]", "values": [{"measurement": "Solubility ratio in 1-octanol and water, C oc/C w", "setting": "[1]; 25 °C", "result": 7.62}, {"measurement": "Solubility ratio in 1-octanol saturated with water and water saturated with 1-octanol, C ocw/C woc", "setting": "[1]; 25 °C", "result": 2.84}, {"measurement": "solubility", "setting": "[1]; 25 °C (Table 1), read-out: Solubility in water, C w", "result": 53, "unit": "µM"}, {"measurement": "solubility", "setting": "[1]; water saturated with 1-octanol, 25 °C, read-out: Solubility in water saturated with 1-octanol, C woc", "result": 135, "unit": "µM"}, {"measurement": "solubility", "setting": "[1]; 35 °C, read-out: Aqueous solubility, C w", "result": 144, "unit": "µM"}, {"measurement": "solubility", "setting": "[1]; 45 °C, read-out: Aqueous solubility, C w", "result": 465, "unit": "µM"}, {"measurement": "Correlation parameter a (Eq. 2, Cs = a + b·CCD)", "setting": "[2]; pH = 5.5, 25 °C", "result": "5.23 × 10^−5"}, {"measurement": "Correlation parameter b (Eq. 2, Cs = a + b·CCD)", "setting": "[2]; pH = 5.5, 25 °C", "result": "1.00 × 10^−2"}, {"measurement": "Correlation parameter a (Eq. 2, Cs = a + b·CCD)", "setting": "[2]; pH = 5.5, 37 °C", "result": "9.95 × 10^−5"}, {"measurement": "Correlation parameter b (Eq. 2, Cs = a + b·CCD)", "setting": "[2]; pH = 5.5, 37 °C", "result": "1.41 × 10^−2"}, {"measurement": "Correlation parameter a (Eq. 2, Cs = a + b·CCD)", "setting": "[2]; pH = 7.0, 25 °C", "result": "5.68 × 10^−5"}, {"measurement": "Correlation parameter b (Eq. 2, Cs = a + b·CCD)", "setting": "[2]; pH = 7.0, 25 °C", "result": "1.06 × 10^−2"}, {"measurement": "Correlation parameter a (Eq. 2, Cs = a + b·CCD)", "setting": "[2]; pH = 7.0, 37 °C", "result": "1.37 × 10^−4"}, {"measurement": "Correlation parameter b (Eq. 2, Cs = a + b·CCD)", "setting": "[2]; pH = 7.0, 37 °C", "result": "1.30 × 10^−2"}, {"measurement": "solubility", "setting": "[2]; organic solvent or mixture, 1-Octanol saturated with buffer, pH = 5.5, 25 °C", "result": 473, "unit": "µM"}, {"measurement": "solubility", "setting": "[2]; organic solvent or mixture, 1-Octanol saturated with buffer, pH = 5.5, 37 °C", "result": 741, "unit": "µM"}, {"measurement": "solubility at 7 days", "setting": "[2]; organic solvent or mixture, 1-Octanol saturated with buffer, pH = 7.0, 25 °C", "result": 485, "unit": "µM"}, {"measurement": "solubility at 7 days", "setting": "[2]; organic solvent or mixture, 1-Octanol saturated with buffer, pH = 7.0, 37 °C", "result": 882, "unit": "µM"}, {"measurement": "Stability constant K s of HP-β-CD complex", "setting": "[2]; pH = 5.5, 25 °C", "result": "213 (±6) dm·mol^−1"}, {"measurement": "Stability constant K s of HP-β-CD complex", "setting": "[2]; pH = 5.5, 37 °C", "result": "144 (±5)"}, {"measurement": "Stability constant K s of HP-β-CD complex", "setting": "[2]; pH = 7, 25 °C", "result": "189 (±6) dm·mol^−1"}, {"measurement": "Stability constant K s of HP-β-CD complex", "setting": "[2]; pH = 7, 37 °C", "result": "96 (±4)"}, {"measurement": "solubility at 7 days", "setting": "[2]; phosphate buffer saturated with 1-octanol, aqueous buffer, Buffer saturated with 1-octanol, pH = 5.5, 25 °C", "result": 74.2, "unit": "µM"}, {"measurement": "solubility at 7 days", "setting": "[2]; phosphate buffer saturated with 1-octanol, aqueous buffer, Buffer saturated with 1-octanol, pH = 5.5, 37 °C", "result": 127, "unit": "µM"}, {"measurement": "solubility at 7 days", "setting": "[2]; phosphate buffer saturated with 1-octanol, aqueous buffer, Buffer saturated with 1-octanol, pH = 7.0, 25 °C", "result": 58.7, "unit": "µM"}, {"measurement": "solubility at 7 days", "setting": "[2]; phosphate buffer saturated with 1-octanol, aqueous with cosolvent or surfactant or cyclodextrin, Buffer saturated with 1-octanol + HP-β-CD (2 × 10^−2 mol·dm^−3), pH = 5.5, 25 °C", "result": 40.3, "unit": "µM"}, {"measurement": "solubility at 7 days", "setting": "[2]; phosphate buffer saturated with 1-octanol, aqueous with cosolvent or surfactant or cyclodextrin, Buffer saturated with 1-octanol + HP-β-CD (2 × 10^−2 mol·dm^−3), pH = 5.5, 37 °C", "result": 77, "unit": "µM"}, {"measurement": "solubility at 7 days", "setting": "[2]; phosphate buffer saturated with 1-octanol, aqueous with cosolvent or surfactant or cyclodextrin, Buffer saturated with 1-octanol + HP-β-CD (2 × 10^−2 mol·dm^−3), pH = 7.0, 25 °C", "result": 40.3, "unit": "µM"}, {"measurement": "solubility at 7 days", "setting": "[2]; phosphate buffer saturated with 1-octanol, aqueous with cosolvent or surfactant or cyclodextrin, Buffer saturated with 1-octanol + HP-β-CD (2 × 10^−2 mol·dm^−3), pH = 7.0, 37 °C", "result": 80.6, "unit": "µM"}, {"measurement": "solubility at 7 days", "setting": "[2]; phosphate buffer with HP-β-CD, aqueous with cosolvent or surfactant or cyclodextrin, Buffer + HP-β-CD (2 × 10^−2 mol·dm^−3), pH = 5.5, 25 °C", "result": 244, "unit": "µM"}, {"measurement": "solubility at 7 days", "setting": "[2]; phosphate buffer with HP-β-CD, aqueous with cosolvent or surfactant or cyclodextrin, Buffer + HP-β-CD (2 × 10^−2 mol·dm^−3), pH = 5.5, 37 °C", "result": 374, "unit": "µM"}, {"measurement": "solubility at 7 days", "setting": "[2]; phosphate buffer with HP-β-CD, aqueous with cosolvent or surfactant or cyclodextrin, Buffer + HP-β-CD (2 × 10^−2 mol·dm^−3), pH = 7.0, 25 °C", "result": 265, "unit": "µM"}, {"measurement": "solubility at 7 days", "setting": "[2]; phosphate buffer with HP-β-CD, aqueous with cosolvent or surfactant or cyclodextrin, Buffer + HP-β-CD (2 × 10^−2 mol·dm^−3), pH = 7.0, 37 °C", "result": 391, "unit": "µM"}, {"measurement": "solubility at 7 days", "setting": "[2]; phosphate buffer, aqueous buffer, Buffer, pH = 5.5, 25 °C", "result": 48.2, "unit": "µM"}, {"measurement": "solubility at 7 days", "setting": "[2]; phosphate buffer, aqueous buffer, Buffer, pH = 5.5, 37 °C", "result": 99.4, "unit": "µM"}, {"measurement": "solubility at 7 days", "setting": "[2]; phosphate buffer, aqueous buffer, Buffer, pH = 7.0, 25 °C", "result": 55, "unit": "µM"}, {"measurement": "solubility at 7 days", "setting": "[2]; phosphate buffer, aqueous buffer, Buffer, pH = 7.0, 37 °C", "result": 136, "unit": "µM"}, {"measurement": "logP at 2 days", "setting": "[3]", "result": 0.386}, {"measurement": "solubility at 7 days", "setting": "[4]", "result": 139, "unit": "µM"}, {"measurement": "Antiherpetic activity relative to parent acyclovir (concentrations required to reduce virus-induced cytopathicity by 50 %)", "setting": "HSV-1 and HSV-2 viruses", "result": "2–7 times higher"}]}
